Test results as given in patent publication US12492202B2, “Macrocyclic PAD4 inhibitors useful as immunosuppressant” (BRISTOL-MYERS SQUIBB COMPANY, priority 2020, dated 2025).

Biological target: human PAD4 (hPAD4) (Homo sapiens (Human), UniProt Q9UM07)
Assay: RFMS Human PAD4 Functional Assay
Format: biochemical
Conditions: rapid-fire mass spectrum (RFMS) assay; 5 nM hPAD4 enzyme, 250 μM BAEE, 30 min preincubation at 37° C.

Sequence of human PAD4 (hPAD4) (Q9UM07 whole entry): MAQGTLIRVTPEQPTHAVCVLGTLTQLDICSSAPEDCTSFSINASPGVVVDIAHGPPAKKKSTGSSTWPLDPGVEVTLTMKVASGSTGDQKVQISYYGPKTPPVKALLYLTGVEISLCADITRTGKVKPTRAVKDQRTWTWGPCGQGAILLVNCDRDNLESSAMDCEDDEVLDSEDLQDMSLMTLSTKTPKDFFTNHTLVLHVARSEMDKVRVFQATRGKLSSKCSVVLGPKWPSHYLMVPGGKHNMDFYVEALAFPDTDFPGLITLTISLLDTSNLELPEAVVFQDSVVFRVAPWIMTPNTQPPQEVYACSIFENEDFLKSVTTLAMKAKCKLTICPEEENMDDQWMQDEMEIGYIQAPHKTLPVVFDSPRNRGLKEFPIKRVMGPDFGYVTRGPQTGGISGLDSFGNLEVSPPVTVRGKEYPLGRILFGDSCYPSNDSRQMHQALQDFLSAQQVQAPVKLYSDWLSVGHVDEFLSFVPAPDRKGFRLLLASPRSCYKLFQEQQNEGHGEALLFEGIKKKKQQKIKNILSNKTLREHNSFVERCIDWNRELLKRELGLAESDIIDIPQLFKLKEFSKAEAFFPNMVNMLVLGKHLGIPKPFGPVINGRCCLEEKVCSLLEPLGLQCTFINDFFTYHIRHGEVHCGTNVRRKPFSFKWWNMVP

Row | Compound | IC50
1 | COc1cc(C(=O)N2C[C@H]3CC[C@@H]2[C@@H]3N)cc2nc3n(c12)Cc1cccc(c1)[C@@H]1CN(C)C[C@@H]1CCCCn1c-3cc2cccnc21 [Example 43, ((1R,4R,7R)-7-amino-2-azabicyclo[2.2.1]heptan-2-yl)((5^3R,5^4R)-2^7-methoxy-5′-methyl-1′H,2^1H-1,2(2,1)-dipyrrolo[2,3-b]pyridina-5(3,4)-pyrrolidina-4(1,3)-benzenacyclononaphane-2^5-yl)methanone] | 153 nM
2 | COc1cc(C(=O)N2C[C@H]3CC[C@@H]2[C@@H]3N)cc2nc3n(c12)Cc1cccc(c1)C1[C@@H](CCCCn2c-3cc3cccnc32)C1(F)F (stereo partly drawn) [Example 44, ((1R,4R,7R)-7-amino-2-azabicyclo[2.2.1]heptan-2-yl)((5^1S,5^2R)-5^3,5^3-difluoro-2^7-methoxy-1H,2^1H-1,2(2,1)-dipyrrolo[2,3-b]pyridina-4(1,3)-benzena-5(1,2)-cyclopropanacyclononaphane-2^5-yl)methanone] | 216 nM
3 | COc1cc(C(=O)N2C[C@H](N)C[C@@H](F)C2)cc2nc3n(c12)Cc1cccc(c1)/C=C\CCCCn1c-3cc2cccnc21 [Example 51, ((3R,5R)-3-amino-5-fluoropiperidin-1-yl)((Z)-2^7-methoxy-1^1H,2^1H-1,2(2,1)-dipyrrolo[2,3-b]pyridina-4(1,3)-benzenacyclodecaphan-5-en-2^5-yl)methanone] | 119 nM
4 | COc1cc(C(=O)N2C[C@H](N)C[C@@H](F)C2)cc2nc3n(c12)Cc1cncc(c1)-c1ccccc1CCCCn1c-3cc2ccc(C(C)(C)O)nc21 [Example 52, ((3R,5R)-3-Amino-5-fluoropiperidin-1-yl)(1^6-(2-hydroxypropan-2-yl)-2^7-methoxy-1^1H,2^1H-1,2(2,1)-dipyrrolo[2,3-b]pyridina-4(3,5)-pyridina-5(1,2)-benzenacyclononaphane-2^5-yl)methanone] | 8 nM

Continued by falling IC50, values first:

Row | IC50 | Compound
5 | 136 nM | ((3R,5R)-3-amino-5- fluoropiperidin-1-yl)((Z)-2^7- methoxy-1^1H,2^1H,4^1H-2(2,1)- benzo[d]imidazola-1(2,1)-indola- 4(4,1)-pyrazolacyclodecaphane- 2^5-yl)methanone [Example 7]
6 | 49.7 nM | COc1cc(C(=O)N2C[C@H]3CC[C@@H]2[C@@H]3N)cc2nc3n(c12)Cc1cccc(c1)CCCCCCn1c-3cc2cccnc21 [Example 42, ((1R,4R,7R)-7-amino-2-azabicyclo[2.2.1]heptan-2-yl)(27-methoxy-11H,21H-1,2(2,1)-dipyrrolo[2,3-b]pyridina-4(1,3)-benzenacyclodecaphane-25-yl)methanone]
7 | 26 nM | ((1R,4R,7R)-7-amino-2-azabicyclo[2.2.1]heptan-2-yl)((cis)-6,7-dihydroxy-2^7-methoxy-1^1H,2^1H-1,2(2,1)-dipyrrolo[2,3-b]pyridina-4(1,3),5(1,2)-dibenzenacyclononaphane-2^5-yl)methanone [Example 39]
8 | 14 nM | COc1cc(C(=O)N2C[C@H]3CC[C@@H]2[C@@H]3N)cc2nc3n(c12)Cc1cncc(c1)-c1ccccc1CCCCn1c-3cc2ccc(C(C)(C)O)nc21 [Example 53, ((1R,4R,7R)-7-Amino-2-azabicyclo[2.2.1]heptan-2-yl)(1^6-(2-hydroxypropan-2-yl)-2^7-methoxy-1^1H,2^1H-1,2(2,1)-dipyrrolo[2,3-b]pyridina-4(3,5)-pyridina-5(1,2)-benzenacyclononaphane-2^5-yl)methanone]
